Results from article PMC5965259 (Journal of medicinal chemistry, 2018).

tested on: bloodstream form T. brucei Lister 427; assay: ATP–bioluminescence-based bloodstream form T. brucei cell viability assay; conditions: Trypanosoma brucei, 48 h, read-out: Tb427 EC50

SMILES | EC50
Cc1cc(Nc2cc(Cl)cc(-c3cncs3)c2)nc(N)n1 [Compound 115, N^4-(3-Chloro-5-(thiazol-5-yl)phenyl)-6-methylpyrimidine-2,4-diamine] | 3.6 µM
Cc1cc(Nc2cc(Cl)cc(-c3ccc(F)cc3)c2)nc(N)n1 [Compound 91, N^4-(5-Chloro-4′-fluoro-[1,1′-biphenyl]-3-yl)-6-methylpyrimidine-2,4-diamine] | 1.6 µM
Cc1cc(Nc2cc(Cl)c(F)c(Cl)c2F)nc(N)n1 [Compound 73, N^4-(3,5-Dichloro-2,4-difluorophenyl)-6-methylpyrimidine-2,4-diamine] | 10 µM
Cc1cc(Nc2cc(Cl)cc(-c3ccc4ccccc4c3)c2)nc(N)n1 [Compound 107, N^4-(3-Chloro-5-(naphthalen-2-yl)phenyl)-6-methylpyrimidine-2,4-diamine] | 1.7 µM
Cc1cc(Nc2cc(Cl)cc(-c3ccccc3Cl)c2)nc(N)n1 [Compound 101, N^4-(2′,5-Dichloro-[1,1′-biphenyl]-3-yl)-6-methylpyrimidine-2,4-diamine] | 8.5 µM
Cc1cc(Nc2cc(Cl)cc(Cl)c2)nc(N(C)C)n1 [Compound 25, N^4-(3,5-Dichlorophenyl)-N^2,N^2,6-trimethylpyrimidine-2,4-diamine] | 14 µM
Cc1cc(Nc2cc(Cl)cc(-c3cc4ccccc4o3)c2)nc(N)n1 [Compound 112, N^4-(3-(Benzofuran-2-yl)-5-chlorophenyl)-6-methylpyrimidine-2,4-diamine] | 1.4 µM
Cc1cc(Nc2cc(Cl)cc(Br)c2)nc(N)n1 [Compound 32, N^4-(3-Bromo-5-chlorophenyl)-6-methylpyrimidine-2,4-diamine] | 4.7 µM
CCCCOc1cc(Br)cc(Nc2cc(C)nc(N)n2)c1 [Compound 42, N^4-(3-Bromo-5-butoxyphenyl)-6-methylpyrimidine-2,4-diamine] | 1.9 µM
Cc1nc(N)nc(Nc2cc(Cl)cc(Cl)c2)c1C [Compound 16] | 17 µM
Nc1ccnc(Nc2cc(Cl)cc(Cl)c2)c1 [Compound 18, N^2-(3,5-Dichlorophenyl)pyridine-2,4-diamine] | 38 µM
Cc1cc(Nc2cccc(Cl)c2)nc(N)n1 [Compound 55, N^4-(3-Chlorophenyl)-6-methylpyrimidine-2,4-diamine] | 42 µM
Cc1ccc(-c2cc(Cl)cc(Nc3cc(C)nc(N)n3)c2)cc1 [Compound 94, N^4-(5-Chloro-4′-methyl-[1,1′-biphenyl]-3-yl)-6-methylpyrimidine-2,4-diamine] | 4.3 µM
Cc1cc(Nc2cc(F)cc(Cl)c2)nc(N)n1 [Compound 61, N^4-(3-Chloro-5-fluorophenyl)-6-methylpyrimidine-2,4-diamine] | 17 µM
Cc1cc(Nc2cc(Cl)cc(-c3ccc(Cl)c(C(F)(F)F)c3)c2)nc(N)n1 [Compound 105, N^4-(4′,5-Dichloro-3′-(trifluoromethyl)-[1,1′-biphenyl]-3-yl)-6-methylpyrimidine-2,4-diamine] | 1.5 µM
Cc1cc(Nc2cc(Cl)cc(-c3cncnc3)c2)nc(N)n1 [Compound 117, N^4-(3-Chloro-5-(pyrimidin-5-yl)phenyl)-6-methylpyrimidine-2,4-diamine] | 58 µM
Cc1cc(Nc2cc(Cl)cc(-c3ccc4nonc4c3)c2)nc(N)n1 [Compound 110, N^4-(3-(Benzo[c][1,2,5]oxadiazol-5-yl)-5-chlorophenyl)-6-methylpyrimidine-2,4-diamine] | 0.57 µM
Cc1cc(Nc2cc(Cl)cc(C#N)c2)nc(N)n1 [Compound 33, 3-((2-Amino-6-methylpyrimidin-4-yl)amino)-5-chlorobenzonitrile] | 12 µM
Cc1cc(Nc2cc(Cl)cc(-c3ccc(C#N)cc3)c2)nc(N)n1 [Compound 96, 3′-((2-Amino-6-methylpyrimidin-4-yl)amino)-5′-chloro-[1,1′-biphenyl]-4-carbonitrile] | 1 µM
Cc1nc(N)cc(Nc2cc(Cl)cc(Br)c2)n1 [Compound 27, N^4-(3-Bromo-5-chlorophenyl)-2-methylpyrimidine-4,6-diamine] | 20 µM
